Experimental data reported in patent US9545105B2, “1-(heterocyclic carbonyl) piperidines” (BAYER INTELLECTUAL PROPERTY GMBH, priority 2010, dated 2017).
Where “and” joins values, the source holds several entries; their conditions need not be identical. Equal entries are not always repeated.

What was measured:
[1] = log P by HPLC on reversed-phase column (C 18), EEC Directive 79/831 Annex V.A8; type: physicochemical; details: HPLC on reversed-phase column (C 18); 40° C.; 0.1% aqueous formic acid and acetonitrile; linear gradient 10% to 90% acetonitrile
Method: In table 1, the log P values were determined in accordance with EEC Directive 79/831 Annex V.A8 by HPLC (High Performance Liquid Chromatography) on a reversed-phase column (C 18), using the method described below: Temperature: 40° C.; Mobile phases: 0.1% aqueous formic acid and acetonitrile; linear gradient from 10% acetonitrile to 90% acetonitrile. Calibration was carried out using unbranched alkan-2-ones (comprising 3 to 16 carbon atoms) with known log P values (determination of the log P values by the retention times using linear interpolation between two successive alkanones). lambda-max-values were determined using UV-spectra from 200 nm to 400 nm and the peak values of the chromatographic signals.

Sphaerotheca fuliginea = test: In vivo preventive test on Sphaerotheca fuliginea (cucumber); details: 500 ppm of active ingredient, evaluated 7 days after inoculation
Method: Solvent: 49 parts by weight of N,N-dimethylformamide Emulsifier: 1 part by weight of Alkylarylpolyglycolether To produce a suitable preparation of active compound, 1 part by weight of active compound is mixed with the stated amounts of solvent and emulsifier, and the concentrate is diluted with water to the desired concentration. To test for preventive activity, young plants are sprayed with the preparation of active compound at the stated rate of application. One day after this treatment, the plants are inoculated with an aqueous spore suspension of Sphaerotheca fuliginea. Then the plants are placed in a greenhouse at approximately 23° C. and a relative atmospheric humidity of approximately 70%. The test is evaluated 7 days after the inoculation. 0% means an efficacy which corresponds to that of the untreated control, while an efficacy of 100% means that no disease is observed.

Alternaria solani = test: In vivo preventive test on Alternaria solani (tomato); details: 500 ppm of active ingredient, evaluated 7 days after inoculation
Method: Solvent: 49 parts by weight of N,N-dimethylformamide Emulsifier: 1 part by weight of Alkylarylpolyglycolether To produce a suitable preparation of active compound, 1 part by weight of active compound is mixed with the stated amounts of solvent and emulsifier, and the concentrate is diluted with water to the desired concentration. To test for preventive activity, young plants are sprayed with the preparation of active compound at the stated rate of application. One day after this treatment, the plants are inoculated with an aqueous spore suspension of Alternaria solani. The plants remain for one day in an incubation cabinet at approximately 22° C. and a relative atmospheric humidity of 100%. Then the plants are placed in an incubation cabinet at approximately 20° C. and a relative atmospheric humidity of 96%. The test is evaluated 7 days after the inoculation. 0% means an efficacy which corresponds to that of the untreated control while an efficacy of 100% means that no disease is observed.

Pyrenophora teres = test: In vivo preventive test on Pyrenophora teres (barley); details: 500 ppm of active ingredient, evaluated 7-9 days after inoculation
Method: Solvent: 49 parts by weight of N,N-dimethylformamide Emulsifier: 1 part by weight of alkylaryl polyglycol ether To produce a suitable preparation of active compound, 1 part by weight of active compound is mixed with the stated amounts of solvent and emulsifier, and the concentrate is diluted with water to the desired concentration. To test for preventive activity, young plants are sprayed with the preparation of active compound at the stated rate of application. One day after this treatment, the plants are inoculated with an aqueous spore suspension of Pyrenophora teres. The plants remain for 48 hours in an incubation cabinet at 22° C. and a relative atmospheric humidity of 100%. Then the plants are placed in a greenhouse at a temperature of approximately 20° C. and a relative atmospheric humidity of approximately 80%. The test is evaluated 7-9 days after the inoculation. 0% means an efficacy which corresponds to that of the untreated control while an efficacy of 100% means that no disease is observed.

Cc1ccccc1C1CCCCN1C(=O)c1c(C(F)F)nn(C)c1F (centres unmarked) [Example 6]
logP [1]: 3.21 | Efficacy (Sphaerotheca fuliginea): 95% | Efficacy (Alternaria solani): 100% | Efficacy (Pyrenophora teres): 100%

Cc1ccccc1C1CCCCN1C(=S)c1c(C(F)F)nn(C)c1F (centres unmarked) [Example 7]
logP [1]: 3.81 | Efficacy (Sphaerotheca fuliginea): 100% | Efficacy (Alternaria solani): 95% | Efficacy (Pyrenophora teres): 100%

Cc1ccc(C2CCCCN2C(=O)c2c(C(F)F)nn(C)c2F)cc1C (centres unmarked) [Example 9]
logP [1]: 3.64 | Efficacy (Sphaerotheca fuliginea): 93% | Efficacy (Alternaria solani): 95% | Efficacy (Pyrenophora teres): 100%

Cn1nc(C(F)F)c(C(=O)N2CCCCC2c2ccccc2Cl)c1F (centres unmarked) [Example 41]
logP [1]: 3.31 | Efficacy (Sphaerotheca fuliginea): 100% | Efficacy (Alternaria solani): 100% | Efficacy (Pyrenophora teres): 100%

Cn1nc(C(F)F)c(C(=S)N2CCCCC2c2ccccc2Cl)c1F (centres unmarked) [Example 42]
logP [1]: 4.00 | Efficacy (Sphaerotheca fuliginea): 100% | Efficacy (Alternaria solani): 100% | Efficacy (Pyrenophora teres): 100%

Cn1nc(C(F)F)c(C(=O)N2CCCCC2c2cccc(Cl)c2)c1F (centres unmarked) [Example 48]
logP [1]: 3.39 | Efficacy (Sphaerotheca fuliginea): 100% | Efficacy (Alternaria solani): 100% | Efficacy (Pyrenophora teres): 100%

Cn1nc(C(F)F)c(C(=S)N2CCCCC2c2cccc(Cl)c2)c1F (centres unmarked) [Example 49]
logP [1]: 4.06 | Efficacy (Sphaerotheca fuliginea): 98% | Efficacy (Alternaria solani): 100% | Efficacy (Pyrenophora teres): 100%

Cn1nc(C(F)F)c(C(=O)N2CCCCC2c2ccc(Cl)cc2)c1F (centres unmarked) [Example 56]
logP [1]: 3.46 | Efficacy (Sphaerotheca fuliginea): 79% | Efficacy (Alternaria solani): 100% | Efficacy (Pyrenophora teres): 100%

Cn1nc(C(F)F)c(C(=S)N2CCCCC2c2ccc(Cl)cc2)c1F (centres unmarked) [Example 57]
logP [1]: 4.16 | Efficacy (Sphaerotheca fuliginea): 70% | Efficacy (Alternaria solani): 100% | Efficacy (Pyrenophora teres): 100%

COc1cc(OC)cc(C2CCCCN2C(=O)c2c(C)nn(C)c2F)c1 (centres unmarked) [Example 68]
logP [1]: 2.56 | Efficacy (Sphaerotheca fuliginea): 83% | Efficacy (Alternaria solani): 80% | Efficacy (Pyrenophora teres): 95%

Cn1nc(C(F)F)c(C(=O)N2CCCCC2c2ccc(Cl)cc2Cl)c1F (centres unmarked) [Example 81]
logP [1]: 3.87 | Efficacy (Sphaerotheca fuliginea): 94% | Efficacy (Alternaria solani): 100% | Efficacy (Pyrenophora teres): 100%

CCc1nn(C)c(F)c1C(=O)N1CCCCC1c1cc(Cl)ccc1Cl (centres unmarked) [Example 82]
logP [1]: 3.67 | Efficacy (Sphaerotheca fuliginea): 79% | Efficacy (Alternaria solani): 95% | Efficacy (Pyrenophora teres): 90%

Cn1nc(C(F)F)c(C(=O)N2CCCCC2c2ccccc2Br)c1F (centres unmarked) [Example 91]
logP [1]: 3.39 | Efficacy (Sphaerotheca fuliginea): 95% | Efficacy (Alternaria solani): 100% | Efficacy (Pyrenophora teres): 100%

Cn1nc(C(F)F)c(C(=S)N2CCCCC2c2ccccc2Br)c1F (centres unmarked) [Example 92]
logP [1]: 3.92 | Efficacy (Sphaerotheca fuliginea): 100% | Efficacy (Alternaria solani): 95% and 100% | Efficacy (Pyrenophora teres): 100%

Cn1nc(C(F)F)c(C(=O)N2CCCCC2c2cccc(Br)c2)c1F (centres unmarked) [Example 97]
logP [1]: 3.51 | Efficacy (Sphaerotheca fuliginea): 96% | Efficacy (Alternaria solani): 100% | Efficacy (Pyrenophora teres): 100%

CCc1noc(C)c1C(=O)N1CCCCC1c1ccc(Br)s1 (centres unmarked) [Example 126]
logP [1]: 3.67 | Efficacy (Sphaerotheca fuliginea): 95%

Cc1ccc(OCC2CCCCN2C(=O)c2c(C(F)F)nn(C)c2Cl)cc1 (centres unmarked) [Example 149]
logP [1]: 3.55 | Efficacy (Alternaria solani): 95% | Efficacy (Pyrenophora teres): 95%

Cc1ccc(OCC2CCCCN2C(=O)c2c(C(F)F)nn(C)c2F)cc1 (centres unmarked) [Example 150]
logP [1]: 3.35 | Efficacy (Alternaria solani): 100% | Efficacy (Pyrenophora teres): 100%

Cn1nc(C(F)F)c(C(=O)N2CCCCC2Cc2cccc(F)c2)c1F (centres unmarked) [Example 153]
logP [1]: 3.13 | Efficacy (Alternaria solani): 100% | Efficacy (Pyrenophora teres): 100%

Cc1nc(C(F)F)c(C(=O)N2CCCCC2Cc2ccc(F)cc2)s1 (centres unmarked) [Example 154]
logP [1]: 3.21 | Efficacy (Alternaria solani): 89% | Efficacy (Pyrenophora teres): 100%

COc1ccccc1CC1CCCCN1C(=O)c1c(C(F)F)nn(C)c1F (centres unmarked) [Example 157]
logP [1]: 3.17 | Efficacy (Alternaria solani): 100% | Efficacy (Pyrenophora teres): 100%

COc1ccccc1CC1CCCCN1C(=S)c1c(C(F)F)nn(C)c1F (centres unmarked) [Example 160]
logP [1]: 3.87 | Efficacy (Alternaria solani): 90% | Efficacy (Pyrenophora teres): 100%

CC(c1ccccc1Cl)C1CCCCN1C(=O)c1c(C(F)F)nn(C)c1Cl (centres unmarked) [Example 164]
logP [1]: 4.06 | Efficacy (Alternaria solani): 89% | Efficacy (Pyrenophora teres): 100%

Cn1nc(C(F)F)c(C(=O)N2CCCCC2Cc2cccc(C(F)(F)F)c2)c1F (centres unmarked) [Example 169]
logP [1]: 3.59 | Efficacy (Alternaria solani): 100% | Efficacy (Pyrenophora teres): 100%

Cn1nc(C(F)F)c(C(=O)N2CCCCC2COc2ccc3ccccc3c2)c1Cl (centres unmarked) [Example 172]
logP [1]: 3.87 | Efficacy (Alternaria solani): 80% | Efficacy (Pyrenophora teres): 90%

Cn1nc(C(F)F)c(C(=O)N2CCCCC2COc2ccc3ccccc3c2)c1F (centres unmarked) [Example 173]
logP [1]: 3.68 | Efficacy (Alternaria solani): 100% | Efficacy (Pyrenophora teres): 95%

Cn1nc(C(F)F)c(C(=O)N2CCCCC2CCc2ccccc2)c1F (centres unmarked) [Example 177]
logP [1]: 3.37 | Efficacy (Alternaria solani): 100% | Efficacy (Pyrenophora teres): 95%

Cn1nc(C(F)F)c(C(=S)N2CCCCC2CCc2ccccc2)c1F (centres unmarked) [Example 179]
logP [1]: 4.06 | Efficacy (Alternaria solani): 95% | Efficacy (Pyrenophora teres): 100%

Cc1cc(C)cc(OCCC2CCCCN2C(=O)c2c(C(F)F)nn(C)c2Cl)c1 (centres unmarked) [Example 180]
logP [1]: 4.11 | Efficacy (Alternaria solani): 80% | Efficacy (Pyrenophora teres): 80%

Cc1cc(C)cc(OCCC2CCCCN2C(=O)c2c(C(F)F)nn(C)c2F)c1 (centres unmarked) [Example 181]
logP [1]: 3.92 | Efficacy (Alternaria solani): 100% | Efficacy (Pyrenophora teres): 100%

Cn1nc(C(F)F)c(C(=O)N2CCCCC2CCOc2ccc(F)cc2F)c1F (centres unmarked) [Example 182]
logP [1]: 3.29 | Efficacy (Alternaria solani): 100% | Efficacy (Pyrenophora teres): 100%

Cn1nc(C(F)F)c(C(=O)N2CCCCC2CCOc2ccc(F)cc2F)c1Cl (centres unmarked) [Example 183]
logP [1]: 3.46 | Efficacy (Alternaria solani): 95% | Efficacy (Pyrenophora teres): 100%

Cn1nc(C(F)F)c(C(=O)N2CCCCC2CCOc2ccc(Cl)cc2Cl)c1Cl (centres unmarked) [Example 184]
logP [1]: 4.26 | Efficacy (Alternaria solani): 95% | Efficacy (Pyrenophora teres): 100%

Cn1nc(C(F)F)c(C(=O)N2CCCCC2CCOc2ccc(Cl)cc2Cl)c1F (centres unmarked) [Example 185]
logP [1]: 4.06 | Efficacy (Alternaria solani): 100% | Efficacy (Pyrenophora teres): 95%

Cn1nc(C(F)F)c(C(=O)N2CCCCC2CCOc2ccccc2-c2ccccc2)c1Cl (centres unmarked) [Example 186]
logP [1]: 4.39 | Efficacy (Alternaria solani): 80% | Efficacy (Pyrenophora teres): 95%

Cn1nc(C(F)F)c(C(=O)N2CCCCC2CCOc2ccccc2-c2ccccc2)c1F (centres unmarked) [Example 187]
logP [1]: 4.21 | Efficacy (Alternaria solani): 95% | Efficacy (Pyrenophora teres): 95%

Cn1nc(C(F)F)c(C(=O)N2CCCCC2CCOc2ccc(-c3ccccc3)cc2)c1Cl (centres unmarked) [Example 188]
logP [1]: 4.49 | Efficacy (Alternaria solani): 70% | Efficacy (Pyrenophora teres): 95%

Cn1nc(C(F)F)c(C(=O)N2CCCCC2CCOc2ccc(-c3ccccc3)cc2)c1F (centres unmarked) [Example 189]
logP [1]: 4.31 | Efficacy (Alternaria solani): 100% | Efficacy (Pyrenophora teres): 95%

Cn1nc(C(F)F)c(C(=O)N2CCCCC2CCOc2ccc3ccccc3c2)c1Cl (centres unmarked) [Example 190]
logP [1]: 4.09 | Efficacy (Alternaria solani): 90% | Efficacy (Pyrenophora teres): 95%

Cn1nc(C(F)F)c(C(=O)N2CCCCC2CCOc2ccc3ccccc3c2)c1F (centres unmarked) [Example 191]
logP [1]: 3.92 | Efficacy (Alternaria solani): 100% | Efficacy (Pyrenophora teres): 100%

Cn1nc(C(F)F)c(C(=O)N2CCCCC2CCc2cccs2)c1F (centres unmarked) [Example 194]
logP [1]: 3.25 | Efficacy (Alternaria solani): 100% | Efficacy (Pyrenophora teres): 100%

Cn1nc(C(F)F)c(C(=O)N2CCCCC2CCOc2ccc(C(F)(F)F)cn2)c1Cl (centres unmarked) [Example 195]
logP [1]: 3.74 | Efficacy (Alternaria solani): 100% | Efficacy (Pyrenophora teres): 95%
